US8697684B2, “Azetidinyl diamides as monoacylglycerol lipase inhibitors” (Janssen Pharmaceutica NV, priority 2009, dated 2014)

Test system: rat
Experiment: CFA-Induced Paw Radiant Heat Hypersensitivity
Assay type: in vivo
Conditions: CFA thermal hypersensitivity, 30 mg/kg p.o., HPβCD, group mean values, last time point 180 or 300 min
Experimental: Each rat was placed in a test chamber on a warm glass surface and allowed to acclimate for approximately 10 min. A radiant thermal stimulus (beam of light) was then focused through the glass onto the plantar surface of each hind paw in turn. The thermal stimulus was automatically shut off by a photoelectric relay when the paw was moved or when the cut-off time was reached (20 sec for radiant heat at ˜5 amps). An initial (baseline) response latency to the thermal stimulus was recorded for each animal prior to the injection of complete Freund's adjuvant (CFA). 24 h following intraplantar CFA injection, the response latency of the animal to the thermal stimulus was then re-evaluated and compared to the animal's baseline response time. […] Post-compound treatment withdrawal latencies were assessed at fixed time intervals, typically 30, 60, 120, 180, and 300 min.
The percent reversal (% R) of hypersensitivity was calculated in one of two different ways: 1) using group mean values or 2) using individual animal values. […]
Method 1. For all compounds, the % R of hypersensitivity was calculated using the mean value for groups of animals at each time point according to the following formula: % reversal=[(group treatment response−group CFA response)/(group baseline response−group CFA response)]×100 Results are given for the maximum % reversal observed for each compound at any time point tested. […]

SMILES: O=C(c1ccc(-c2cccc(C(F)(F)F)c2)c(Cl)c1)N1CC(N2CCN(C(=O)c3cscn3)CC2)C1 [Cpd 1102]
- Method 1: peak % reversal: 38%
